Measurements as given in patent US20250360145A1, “CSF-1R INHIBITORS AND USES THEREOF” (Myrobalan Therapeutics, Inc., priority 2022, published 2025).

What was measured:
EOC2 cell = assay: Cell proliferation assay, EOC2; format: cell-based, mouse; settings: Mus musculus, 72 h, EOC2 cells, 72 hours treatment; read-out: ECO2 EC50
CSF-1R = CSF-1R (Homo sapiens (Human), UniProt P07333); assay: Biochemical HTRF kinase assay, CSF-1R; settings: Table 2; recombinant human CSF-1R;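 further: enzyme incubated with inhibitor plus a substrate and ATP mix for one hour at room temperature before HTRF detection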
Chain of CSF-1R (P07333 20-972): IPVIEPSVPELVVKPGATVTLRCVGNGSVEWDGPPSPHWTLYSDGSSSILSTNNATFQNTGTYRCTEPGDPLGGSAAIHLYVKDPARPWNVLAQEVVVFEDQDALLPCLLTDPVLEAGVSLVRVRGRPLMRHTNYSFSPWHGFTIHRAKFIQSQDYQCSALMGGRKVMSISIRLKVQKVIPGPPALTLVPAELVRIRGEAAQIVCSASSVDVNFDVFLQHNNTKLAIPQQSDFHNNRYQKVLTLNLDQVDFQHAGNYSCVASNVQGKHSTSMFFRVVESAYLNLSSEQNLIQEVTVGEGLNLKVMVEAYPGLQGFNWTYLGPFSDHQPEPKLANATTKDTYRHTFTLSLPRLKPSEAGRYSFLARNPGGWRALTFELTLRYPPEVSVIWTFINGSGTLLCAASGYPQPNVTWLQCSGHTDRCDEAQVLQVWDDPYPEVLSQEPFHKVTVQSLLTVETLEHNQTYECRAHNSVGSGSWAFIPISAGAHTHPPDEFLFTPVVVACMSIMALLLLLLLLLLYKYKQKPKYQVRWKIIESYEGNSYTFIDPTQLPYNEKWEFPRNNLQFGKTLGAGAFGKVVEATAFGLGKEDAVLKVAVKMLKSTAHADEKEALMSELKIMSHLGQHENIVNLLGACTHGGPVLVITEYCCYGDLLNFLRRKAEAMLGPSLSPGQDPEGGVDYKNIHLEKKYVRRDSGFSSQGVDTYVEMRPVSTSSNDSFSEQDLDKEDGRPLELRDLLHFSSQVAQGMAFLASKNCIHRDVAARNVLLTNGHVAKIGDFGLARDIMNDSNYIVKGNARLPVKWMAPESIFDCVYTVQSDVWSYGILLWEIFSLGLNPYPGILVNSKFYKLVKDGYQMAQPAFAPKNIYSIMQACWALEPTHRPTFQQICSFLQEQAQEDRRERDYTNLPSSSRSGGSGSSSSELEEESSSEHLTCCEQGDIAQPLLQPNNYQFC

[1] = system: Ba/F3_CSF-1R (stably expressing human CSF-1R kinase); assay: Cell proliferation assay, Ba/F3_CSF-1R; format: cell-based; settings: BaF3, 72 h, Ba/F3_CSF-1R cells, 72 hours treatment; read-out: CSF-1R BaF3 EC50

Compound	EC50 (EOC2 cell)	IC50 (CSF-1R)	EC50 [1]
CCn1cc(COc2ncc(Cc3ccnc4cc(OC)cnc34)cc2OC)cn1 [Example 47]	> 1000 nM	2 nM	> 1000 nM
COc1cnc2c(Cc3cnc(OCc4ccn(C)n4)c(OC)c3)ccnc2c1 [Example 48]	296 nM	8.2 nM	586 nM
COc1cnc2c(Cc3cnc(OCc4ccnn4C)c(OC)c3)ccnc2c1 [Example 49]	> 1000 nM	62.1 nM	> 1000 nM
COc1cnc2c(Cc3cnc(OCc4cnc(OC)nc4)c(OC)c3)ccnc2c1 [Example 50]	312 nM	15.2 nM	481 nM
COc1cnc2c(Cc3cnc(OCc4cc(C)on4)c(OC)c3)ccnc2c1 [Example 51]	225 nM	105 nM	590 nM
COc1ccc(COc2ncc(Cc3ccnc4cc(OC)ncc34)cc2OC)nc1 [Example 52]	209 nM	49.7 nM	482 nM
COc1ccc(COc2ncc(Cc3ccnc4ccc(OC)nc34)cc2OC)nc1 [Example 53]	278 nM	60.1 nM	338 nM
COc1ccc(COc2ncc(Oc3ccnc4cc(OC)cnc34)cc2OC)nc1 [Example 54, 3-methoxy-8-((5-methoxy-6-((5-methoxypyridin-2-yl)methoxy)pyridin-3-yl)oxy)-1,5-naphthyridine]	317 nM	87.1 nM	800 nM
CCc1cc(COc2ncc(Cc3ccnc4cc(OC)cnc34)cc2OC)on1 [Example 57]	98.6 nM	19 nM	178 nM
COc1cnc2c(Cc3cnc(OCc4ccc(C(F)F)nc4)c(OC)c3)ccnc2c1 [Example 60]	84.1 nM	5.4 nM	97.3 nM
COc1cnc2c(Cc3cnc(OCc4ccc(C(F)(F)F)cn4)c(OC)c3)ccnc2c1 [Example 61]	47.4 nM	3.9 nM	70.6 nM
COc1ccc(COc2ncc(Cc3ccnc4cc(C)cnc34)cc2OC)nc1 [Example 63]	688 nM	16.7 nM	236 nM
COc1ccc(COc2ncc(Cc3ccnc4cc(F)cnc34)cc2OC)nc1 [Example 64]	973 nM	21.8 nM	400 nM
COc1ccc(COc2ncc(Cc3ccnc4cc(C#N)cnc34)cc2OC)nc1 [Example 65, 8-((5-methoxy-6-((5-methoxypyridin-2-yl)methoxy)pyridin-3-yl)methyl)-1,5-naphthyridine-3-carbonitrile]	> 1000 nM	26.9 nM	787 nM
COc1cnc2c(Cc3cnc(OCc4ccc(=O)n(C)c4)c(OC)c3)ccnc2c1 [Example 67]	> 1000 nM	9.3 nM	> 1000 nM
COc1ccc(COc2ncc(Cc3ccnc4cc(OC)cnc34)cc2OC(F)F)nc1 [Example 68, 8-((5-(difluoromethoxy)-6-((5-methoxypyridin-2-yl)methoxy)pyridin-3-yl)methyl)-3-methoxy-1,5-naphthyridine]	> 1000 nM	99.2 nM	> 1000 nM
COc1cnc2c(Cc3cnc(OCc4ccc(C5CC5)cn4)c(OC(F)F)c3)ccnc2c1 [Example 69]	> 1000 nM	203 nM	> 1000 nM
COc1cnc2c(Cc3cnc(OCc4nc(C)no4)c(OC)c3)ccnc2c1 [Example 70]	> 1000 nM	272 nM	> 1000 nM
COCc1ccc(COc2ncc(Cc3ccnc4cc(OC)cnc34)cc2OC)nc1 [Example 71]	168 nM	25.4 nM	359 nM
COc1cnc2c(Cc3cnc(OCc4cc5n(n4)CCN(C)C5)c(OC)c3)ccnc2c1 [Example 75]	448 nM	32 nM	949 nM

Compound	EC50 (EOC2 cell)	IC50 (CSF-1R)	EC50 [1]
COc1cnc2c(Cc3cnc(OCc4ccc(C5COC5)cn4)c(OC)c3)ccnc2c1 [Example 76]	82.1 nM	13.6 nM	302 nM
COc1ccc(COc2ncc(C(C)c3ccnc4cc(OC)cnc34)cc2OC)nc1 (stereo not drawn) [Example 77]	360 nM	101 nM	543 nM
COc1ccc(COc2ncc(C(F)c3ccnc4cc(OC)cnc34)cc2OC)nc1 (stereo not drawn) [Example 84, 8-(fluoro(5-methoxy-6-((5-methoxypyridin-2-yl)methoxy)pyridin-3-yl)methyl)-3-methoxy-1,5-naphthyridine]	> 1000 nM	28.4 nM	> 1000 nM
COc1cnc2c(Cc3cnc(OCc4ccc(CN(C)C)cn4)c(OC)c3)ccnc2c1 [Example 85]	> 1000 nM	110 nM	> 1000 nM
COc1cnc2c(Cc3cnc(OCc4cc5n(n4)CCCO5)c(OC)c3)ccnc2c1 [Example 86]	183 nM	4.4 nM	290 nM
COc1cnc2c(Cc3cnc(OCc4ccc(C5CN(C)C5)cn4)c(OC)c3)ccnc2c1 [Example 89]	> 1000 nM	286 nM	> 1000 nM
COc1cnc2c(Cc3cnc(OCc4cc(C5COC5)no4)c(OC)c3)ccnc2c1 [Example 90]	154 nM	17.4 nM	282 nM
COc1cnc2c(Cc3cnc(OCc4cc(C)n(C5CN(C)C5)n4)c(OC)c3)ccnc2c1 [Example 91]	388 nM	40.6 nM	753 nM
COc1cnc2c(Cc3cnc(OCc4cnc5c(c4)CCC5OC)c(OC)c3)ccnc2c1 (stereo not drawn) [Example 92]	26 nM	1.8 nM	67.9 nM
COc1cnc2c(Cc3cnc(OCc4cn5c(n4)CN(C)CC5)c(OC)c3)ccnc2c1 [Example 94]	> 1000 nM	14 nM	> 1000 nM
[2H]C([2H])(c1cnc(OCc2ccc(OC)cn2)c(OC)c1)c1ccnc2cc(OC)cnc12 [Example 95]	54.3 nM	3.4 nM	42.2 nM
COCc1cc(COc2ncc(Cc3ccnc4cc(OC)cnc34)cc2OC)nn1C [Example 96]	190 nM	16.2 nM	234 nM
COc1cnc2c(Cc3cnc(OCc4cc(C(F)(F)F)n(C)n4)c(OC)c3)ccnc2c1 [Example 97]	82.7 nM	2 nM	34 nM
COc1cnc2c(Cc3cnc(OCc4cc5n(n4)CCOC5C)c(OC)c3)ccnc2c1 (stereo not drawn) [Example 98]	54.7 nM	4.7 nM	57.3 nM
COc1cnc2c(Cc3cnc(OCc4cc5n(n4)CCOC5(C)C)c(OC)c3)ccnc2c1 [Example 99]	51.7 nM	5.6 nM	59.1 nM
COc1cnc2c(Cc3cnc(OCc4cc(C(C)OC)n(C)n4)c(OC)c3)ccnc2c1 (stereo not drawn) [Example 102]	77 nM	4 nM	134 nM
COc1cnc2c(Cc3cnc(OCc4cc5n(n4)C(C)COC5)c(OC)c3)ccnc2c1 (stereo not drawn) [Example 103]	26 nM	1.9 nM	41.7 nM
COc1cnc2c(Cc3cnc(OCc4cc(C(C)C)nn4C)c(OC)c3)ccnc2c1 [Example 106]	76.3 nM	2.6 nM	95.9 nM
COc1cnc2c(Cc3cnc(OCc4cc5n(n4)CCCOC5)c(OC)c3)ccnc2c1 [Example 107]	37.1 nM	1.6 nM	65.9 nM
COc1cnc2c(Cc3cnc(OCc4cc5n(n4)CC4(CC4)C5)c(OC)c3)ccnc2c1 [Example 108]	23.7 nM	1.9 nM	37.6 nM
